Data: patent US11384099B2, “Pyrazolopyridinone compounds” (Janssen Pharmaceutica NV, priority 2017, dated 2022)
pIC50: −log10 of the molar value.

How the values were obtained:
[1] = system: NIH/3T3 cells transfected with control vector (MOCK); assay: NIH/3T3 mock cell proliferation assay (CTG, counter assay); type: cell-based; conditions: Mus musculus, NIH3T3; 72-hr incubation, CellTiter Glo; counter assay for general toxicity
Procedure, shortened: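 Control-vector NIH/3T3 cells, 30,000/well in DMEM with 10% FBS, exposed 72 h at 37 °C to compound (9 points, 3-fold from 30 μM, 0.3% DMSO). CellTiter-Glo luminescence normalized to survival %; IC50, pIC50 and Hill slope from concentration-response fit.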

[2] = molecular target: T1, NIH/3T3 cells overexpressing FGFR3 V555M-TACC3 fusion protein (Homo sapiens, UniProt P22607, V555M, cells depend on it); assay: NIH/3T3 FGFR3 V555M-TACC3 cell proliferation assay (CTG); type: cell-based; conditions: 72-hr incubation, CellTiter Glo; read-out: NIH/3T3 FGFR3 V555M-TACC3 CTG (IC50)
T1 construct: NIH/3T3 FGFR3 V555M-TACC3 CTG (IC50); other: 72-hr incubation, CellTiter Glo; fused on or other part: C-terminal coiled-coil part of TACC3 (part of the key, as a fusion known from patients); Q9Y6A5 (Transforming acidic coiled-coil-containing protein 3)
Procedure: NIH/3T3 FGFR3 V555M-TACC3 Cell Proliferation Assay
(§1) In day 1, 90 μL of cell suspension (NIH/3T3 cells overexpressing FGFR3 V555M-TACC3 fusion protein) (total 30,000 cells per well in growth medium (DMEM containing 1% Glutamax, 10% FBS and 1% Pen/Strep)) was seeded in a 96-well plate and then incubated overnight at 37° C. and 5% CO2. In day 2, 10 μL of growth medium containing 10-fold stock solution of testing compound was added into cell cultures (9 dose points with 4× serial dilution, starting with 10 μM, 0.1% DMSO final). After 72-hr incubation at 37° C. and 5% CO2, in day 5 a volume of 50 μL CellTiter Glo (CTG) reagent was added into cell-containing 96-well plate and the plate was incubated at room temperature for 10 minutes before RLUs (relative light unit) were measured on a microplate reader with luminescence detection module. The RLU value was normalized to survival % and concentration-response curve was plotted using Prism to calculate IC50 (M), pIC50 (−log IC50) and HillSlope value.

[3] = molecular target: T2, human FGFR3 wild type enzyme (cytoplasmic domain) (Homo sapiens, UniProt P22607); assay: FGFR3 wild type mobility shift assay (enzymatic assay, Caliper); type: biochemical; conditions: 75 μM ATP, 50 minutes at 30° C.
T2 construct: human FGFR3 wild type enzyme (cytoplasmic domain, from Cama Biosciences); purchased Carna Biosciences
Procedure, shortened: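 Cytoplasmic-domain FGFR3 (0.04 ng/μL) reacted with 75 μM ATP and 1 μM FL-peptide 30 in HEPES pH 7.4/MgCl2/Brij35/DTT buffer, 1% DMSO final. Incubation 50 min at 30° C, EDTA stop; substrate phosphorylation read by microfluidic mobility shift.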

[4] = molecular target: T3, human FGFR3 V555M enzyme (cytoplasmic domain carrying V555M mutation) (Homo sapiens, UniProt P22607, V555M); assay: FGFR3 V555M mobility shift assay (enzymatic assay, Caliper); type: biochemical; conditions: 30 μM ATP, 45 minutes at 30° C.
T3 construct: cytoplasmic domain carrying V555M mutation, from Carna Biosciences; purchased Carna Biosciences
Procedure, shortened: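 Cytoplasmic-domain human FGFR3 V555M (0.04 ng/μL) reacted with 30 μM ATP and 1 μM FL-peptide 30 in HEPES pH 7.4, MgCl2, Brij35, DTT, 1% DMSO final. Incubation 45 min at 30 °C, stopped with EDTA. Substrate/product separated and read by mobility shift on a Caliper EZ reader II.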

[5] = molecular target: T4, NIH/3T3 cells overexpressing FGFR3 WT-TACC3 fusion protein (Homo sapiens, UniProt P22607); assay: NIH/3T3 FGFR3 WT-TACC3 cell proliferation assay (CTG); type: cell-based; conditions: 72-hr incubation, CellTiter Glo; read-out: NIH/3T3 FGFR3 WT-TACC3 CTG (IC50)
T4 construct: NIH/3T3 FGFR3 WT-TACC3 CTG (IC50); other: 72-hr incubation, CellTiter Glo; fused on or other part: C-terminal coiled-coil part of TACC3 (part of the key, as a fusion known from patients); Q9Y6A5 (Transforming acidic coiled-coil-containing protein 3)
Procedure: NIH/3T3 FGFR3 WT-TACC3 Cell Proliferation Assay
as §1, with “WT-TACC3” for “V555M-TACC3”

[6] = system: NIH/3T3 cells overexpressing FGFR3 WT-TACC3 fusion protein; assay: NIH/3T3 FGFR3 WT-TACC3 cellular phospho-ERK assay (in vitro PD assay); type: cell-based; conditions: Mus musculus, NIH3T3; 1-hr incubation, AlphaLISA SureFire Ultra p-ERK1/2; read-out: NIH/3T3 FGFR3 WT-TACC3 pERK (IC50)
Procedure: NIH/3T3 FGFR3 WT-TACC3 Cellular Phospho-ERK Assay (In Vitro PD Assay)
(§2) 50 uL of cell suspension (NIH/3T3 cells overexpressing FGFR3 WT-TACC3 fusion protein) (total 10,000 cells per well in growth medium (DMEM containing 1% Glutamax, 10% FBS and 1% Pen/Strep)) was seeded in a 384-well plate. After overnight incubation at 37° C. and 5% CO2, 5.5 μL of growth medium containing 10× testing compound was added into cell cultures (10 dose points with 4× serial dilution, starting with 10 μM, 0.1% DMSO final). After 1-hr incubation at 37° C. and 5% CO2, the medium was depleted and AlphaLISA SureFire Ultra p-ERK1/2 (Thr202/Tyr204) Assay Kit (from PerkinElmer) was applied for phospho-ERK level detection according to the kit instructions. The RFUs (relative fluorescence units were measured on EnVision microplate reader (ex. 680 nm, em. 615 nm) and concentration-response curve was plotted using Prism to calculate IC50 (M), pIC50 (−log IC50) and HillSlope value.

[7] = system: NIH/3T3 cells overexpressing FGFR3 V555M-TACC3 fusion protein; assay: NIH/3T3 FGFR3 V555M-TACC3 cellular phospho-ERK assay (in vitro PD assay); type: cell-based; conditions: Mus musculus, NIH3T3; 1-hr incubation, AlphaLISA SureFire Ultra p-ERK1/2; read-out: NIH/3T3 FGFR3 V555M-TACC3 pERK (IC50)
Procedure: NIH/3T3 FGFR3 V555M-TACC3 Cellular Phospho-ERK Assay (In Vitro PD Assay)
as §2, with “μL” for “uL”, “V555M-TACC3” for “WT-TACC3”

T2 sequence (P22607 397-806 limits assumed): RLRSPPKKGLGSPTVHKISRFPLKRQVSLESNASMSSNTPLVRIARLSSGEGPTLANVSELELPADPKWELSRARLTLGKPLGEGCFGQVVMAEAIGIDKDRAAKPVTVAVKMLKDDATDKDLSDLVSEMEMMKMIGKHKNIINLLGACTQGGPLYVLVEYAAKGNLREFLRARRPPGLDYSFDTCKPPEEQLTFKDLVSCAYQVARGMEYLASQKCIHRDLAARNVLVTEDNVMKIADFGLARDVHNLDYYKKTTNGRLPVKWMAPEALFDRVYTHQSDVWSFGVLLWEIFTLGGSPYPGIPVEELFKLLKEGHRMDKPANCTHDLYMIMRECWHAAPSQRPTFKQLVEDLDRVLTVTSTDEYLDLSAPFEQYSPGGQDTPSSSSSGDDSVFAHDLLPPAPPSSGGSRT
T1 sequence (P22607 whole entry V555M, the tested form may be a part): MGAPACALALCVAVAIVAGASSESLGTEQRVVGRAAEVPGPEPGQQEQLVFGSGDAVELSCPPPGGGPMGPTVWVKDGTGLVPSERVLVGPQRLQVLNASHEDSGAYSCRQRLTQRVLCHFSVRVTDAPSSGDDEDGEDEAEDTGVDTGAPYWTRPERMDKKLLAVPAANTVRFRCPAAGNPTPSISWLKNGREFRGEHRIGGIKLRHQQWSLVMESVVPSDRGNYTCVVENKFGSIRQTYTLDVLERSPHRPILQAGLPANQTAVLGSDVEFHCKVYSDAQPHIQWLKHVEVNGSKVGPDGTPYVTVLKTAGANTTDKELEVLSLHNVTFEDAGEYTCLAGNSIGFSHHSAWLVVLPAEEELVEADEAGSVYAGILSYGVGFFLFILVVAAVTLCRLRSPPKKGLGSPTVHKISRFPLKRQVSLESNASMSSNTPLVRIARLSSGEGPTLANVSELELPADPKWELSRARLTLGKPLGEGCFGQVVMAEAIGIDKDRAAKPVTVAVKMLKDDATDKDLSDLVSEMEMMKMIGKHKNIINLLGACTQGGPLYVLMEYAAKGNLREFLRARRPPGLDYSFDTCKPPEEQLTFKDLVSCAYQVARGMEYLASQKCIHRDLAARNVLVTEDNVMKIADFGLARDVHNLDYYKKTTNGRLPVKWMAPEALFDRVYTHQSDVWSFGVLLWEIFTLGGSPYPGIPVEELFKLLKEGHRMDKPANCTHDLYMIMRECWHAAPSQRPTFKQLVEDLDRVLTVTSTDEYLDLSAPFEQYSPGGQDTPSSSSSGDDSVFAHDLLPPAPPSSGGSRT
T4 sequence (P22607 whole entry, change not shown, the tested form may be a part): as the sequence (P22607 whole entry V555M, the tested form may be a part) above, with M555V counted along it
T3 sequence (P22607 397-806 V555M limits assumed): as the sequence (P22607 397-806 limits assumed) above, with V159M counted along it

GI50 [2] [nM]	pIC50 [3]	pIC50 [4]	GI50 [5] [nM]	SMILES	pIC50 [1]	pIC50 [6]	pIC50 [7]
18.5	–	–	–	CCC(Nc1c(-c2nc3ccc(OCCOC)cc3[nH]2)c(=O)[nH]c2cn(C)nc12)c1ncccn1 (single isomer, unassigned) [Compound 48, (S*)-6-(6-(2-methoxyethoxy)-1H-benzo[d]imidazol-2-yl)-2-methyl-7-((1-(pyrimidin-2-yl)-propyl)amino)-2H-pyrazolo[4,3-b]pyridin-5 (4H)-one]	6.40	–	–
–	9.02	9.41	17.4	COc1cc2[nH]c(-c3c(N[C@@H](C)c4ncccn4)c4nn(C)cc4[nH]c3=O)nc2c(F)c1OC [Compound 55, (S)-6-(4-fluoro-5,6-dimethoxy-1H-benzo[d]imidazol-2-yl)-2-methyl-7-((1-(pyrimidin-2-yl)ethyl)amino)-2H-pyrazolo[4,3-b]pyridin-5 (4H)-one]	5.64	8.26	8.28
